Assays:
Assay type in all cases: in vivo, mouse
[1] = system: H-2Kb/OVA specific CD8 T cells; assay: Adjuvant effect on H-2Kb/OVA specific CD8 T cells upon ovalbumin immunization; settings: for Frequency of Kb/OVA specific CTLs in the spleens, of total CD8: after OVA peptide boost, 5 days in vitro culture without further stimulation; for Frequency of specific T cells: after boost and in vitro re-stimulation with same stimuli; for H-2Kb/OVA257-264 tetramer CD8 double positive T cells after priming: priming with 200 μg ovalbumin plus adjuvant
Experimental: FIG. 8: αGalCer loaded sCD1d acts as a strong adjuvant for the expansion of antigen-specific T cells upon active immunization. a kinetics of expansion of H-2K^b/OVA specific CTLs. Mice were primed with 200 μg ovalbumin either as such (i.v.) or with MONTANIDE™ adjuvant (3:7 ratio, s.c.) or with 1 μg αGalCer or 20 μg αGalCer/sCD1d (i.v.). Mice were bled every 5-7 days and PBMC were stained with H-2K^b/oVA tetramer+anti-CD8. Results were expressed as tetramer+ and CD8+ […] as a percentage of total CD8+ T cells. Mice were boosted with OVA peptide (20 μg) on day 22 employing the same adjuvants and route of injection as for primary immunization. b Ten days later, mice were sacrificed and splenocytes were cultured another five days either with no stimuli or with the same stimuli and adjuvants as for the in vivo boost. Frequency of OVA specific T cells was measured as in a. c The presence of mature DC in the same cultures as in b was analyzed by surface staining with anti CD11c and anti CD40 antibodies.
Together with active OVA immunization: An adjuvant effect has previously been attributed to free αGalCer and its potential use in vaccination has been proposed (Silk, J. D., et al. J Clin Invest 114:1800-1811 (2004)). […] In this context, the adjuvant effect on the expansion of antigen-specific T cells in the model of C57 BL/6 mice immunized with ovalbumin was investigated (Hermans, I. F., et al. J Immunol 171:5140-5147 (2003)). […] Furthermore, after boosting these same mice with OVA peptide in the same adjuvants in vivo and then 5 days in vitro culture without further stimulation, the frequency of K^b/OVA specific CTLs in the spleens reached up to 45% of total CD8 in mice that received a boost of OVA peptide with αGalCer/sCD1d, whereas the frequency was 12% in mice boosted with peptide and αGalCer alone (FIG. 8b). A further increase could be obtained by in vitro re-stimulation with the same respective stimuli and the frequency of specific T cells reached close to 70% in both αGalCer and αGalCer/sCD1d-treated mice (FIG. 8b).

liver iNKT cells = assay: InvTCR downmodulation: disappearance of liver iNKT cells after single i.p. injection; settings: 20 hours after single i.p. injection; αGalCer 5 μg, sCD1d 20 μg, fusion 40 μg
Experimental: Frequency of iNKT cells was measured by flow cytometry using CD1d-Tetramer-EXTRAVIDIN®-PE and anti CD3 FITC.
Generation of CD1d tetramer. For this purpose, the soluble β2m-CD1d molecule was modified at the C-terminus by the addition of a cysteine after the stretch of histidine residues. After a mild reduction with 0.5 mM β-mercaptoethanol for 30 min at 30C and purification on a PD10 desalting column, the pure recombinant protein was biotinylated on the cystein residue by the chemical coupling of a biotin-maleimide linker (EZ-linked BM, Pierce) in 2M excess overnight at RT. The excess of linker was removed by gel filtration on a SUPERDEX™S200 column (Pharmacia Biotech). The biotinylated CD1d was loaded with αGalCer as described above and was tetramerized on EXTRAVIDIN®-PE (Sigma) and resulting complex was used at 5 μg/ml for NKT cell staining.
Isolation of liver, lung and spleen lymphocytes. Mouse livers and lungs were homogenized with 100 μm strainer and lymphocytes were isolated using a PERCOLL™ density gradient (Amersham Biosciences). After two washings, cells were either re-challenged or directly analyzed by fluorescence cytometry. Spleens were homogenized with a 70 μm strainer, debris were eliminated by spontaneous sedimentation and splenocytes were recovered by centrifugation. […]

B16-HER2 melanoma cells = assay: Systemic treatment of B16-HER2 lung metastases; settings: 5 i.v. injections starting 48 hours after tumor graft
Experimental: FIG. 6: In vivo anti tumor activity—Systemic Treatment. a Mice were grafted i.v. with 700.000 B16-HER2 cells and i.v. treatment was started 48 hours later. Mice were injected i.v. 5 times every 2 to 3 days with PBS (control), αGalCer (0.4 μg), αGalCer/sCD1d (sCD1d, 25 μg), or αGalCer/CD1d-anti-HER2 fusion (Fusion, 40 μg). Lung metastases were analysed after 3 weeks by the ImageJ k-means clustering program and expressed as percent metastatic surface over total lung surface. […] Mice were injected i.v. with 700,000 B16-HER2 cells and treatment with PBS (Control), αGalCer, or αGalCer/CD1d-anti-HER2 fusion protein (Fusion) was started 6 days after graft. Mice were treated 3× i.v. every 2-3 days and lung metastases were analyzed after 3 weeks as described above.
Quantification of lung metastasis. Metastatic nodule surface area was measured on 2560×1920 pixels photographs of the whole organs, taken on an Zeiss STEMI SV11 dissection microscope (Carl Zeiss, Jena, Germany) equipped with a PROGRES-C10plus Color Camera (Jenoptik, Jena, Germany). Each image was analyzed with the ImageJ program (rsb.info.nih.gov/ij/) using a k-means clustering algorithm (plugin available on ij-plugins.sourceforge.net). […] The area of the sum of selected color segments was expressed as percentage of the area occupied by the lungs. Both sides of the lung were analyzed. […]

CCCCCCCCCCCCCCCCCCCCCCCCCC(=O)N[C@@H](CO[C@H]1O[C@H](CO)[C@H](O)[C@H](O)[C@H]1O)[C@H](O)[C@H](O)CCCCCCCCCCCCCC [αGalCer, α-galactosylceramide, reference compound]
Frequency of Kb/OVA specific CTLs in the spleens, of total CD8 [1]: 12% | Frequency of specific T cells [1]: ~70% | H-2Kb/OVA257-264 tetramer CD8 double positive T cells after priming [1]: no H-2K^b/OVA257-264 tetramer CD8 double positive T cells could be detected | inv TCR downmodulation / disappearance of liver iNKT cells (liver iNKT cells): inv TCR downmodulation occurred | Anti tumor effect in words (B16-HER2 melanoma cells): no significant anti tumor effect

B1: αGalCer/sCD1d: soluble monomeric mouse β2m-CD1d, His-tagged, loaded with αGalCer (protein)
chain: IQKTPQIQVYSRHPPENGKPNILNCYVTQFHPPHIEIQMLKNGKKIPKVEMSDMSFSKDWSFYILAHTEFTPTETDTYACRVKHASMAEPKTVYWDRDMGGGGSGGSGSGGGSEAQQKNYTFRCLQMSSFANRSWSRTDSVVWLGDLQTHRWSNDSATISFTKPWSQGKLSNQQWEKLQHMFQVYRVSFTRDIQELVKMMSPKEDYPIEIQLSAGCEMYPGNASESFLHVAFQGKYVVRFWGTSWQTVPGAPSWLDLPIKVLNADQGTSATVQMLLNDTCPLFVRGLLEAGKSDLEKQEKPVAWLSSVPSSADGHRQLVCHVSGFYPKPVWVMWMRGDQEQQGTHRGDFLPNADETWYLQATLDVEAGEEAGLACRVKHSSLGGQDIILYWSSGSGGHHHHHH
Frequency of Kb/OVA specific CTLs in the spleens, of total CD8 [1]: up to 45% | Frequency of specific T cells [1]: ~70% | H-2Kb/OVA257-264 tetramer CD8 double positive T cells after priming [1]: could be detected | inv TCR downmodulation / disappearance of liver iNKT cells (liver iNKT cells): transient disappearance of liver iNKT cells | Anti tumor effect in words (B16-HER2 melanoma cells): anti tumor activity which was very variable from mouse to mouse
